Experimental data published in the supplement of paper PMC13380429.

How the values were obtained:
Settings in all cases: 72 h
Caco-2 [1] = assay: cell viability relative to DMSO; higher = less toxic
Calu-3 [2] = assay: as above
HepG2 [3] = assay: as above
U2OS [4] = assay: as above
Vero E6 [5] = assay: as above
Caco-2 [6] = assay: relative viability EC50 (midpoint between 100% and the lowest measured viability); higher = less toxic
Calu-3 [7] = assay: as above
HepG2 [8] = assay: as above
U2OS [9] = assay: as above
Vero E6 [10] = assay: as above
Caco-2 [11] = assay: drug sensitivity score (DSS) for viability; higher = more toxic; extreme values may be limits of the assay
Calu-3 [12] = assay: as above
HepG2 [13] = assay: as above
U2OS [14] = assay: as above
Vero E6 [15] = assay: as above

| SMILES | cell viability (Caco-2 [1]; 1 nM) | cell viability (Caco-2 [1]; 10 nM) | cell viability (Caco-2 [1]; 100 nM) | cell viability (Caco-2 [1]; 1000 nM) | cell viability (Caco-2 [1]; 10000 nM) | cell viability (Calu-3 [2]; 1 nM) | cell viability (Calu-3 [2]; 10 nM) | cell viability (Calu-3 [2]; 100 nM) | cell viability (Calu-3 [2]; 1000 nM) | cell viability (Calu-3 [2]; 10000 nM) | cell viability (HepG2 [3]; 1 nM) | cell viability (HepG2 [3]; 10 nM) | cell viability (HepG2 [3]; 100 nM) | cell viability (HepG2 [3]; 1000 nM) | cell viability (HepG2 [3]; 10000 nM) | cell viability (U2OS [4]; 1 nM) | cell viability (U2OS [4]; 10 nM) | cell viability (U2OS [4]; 100 nM) | cell viability (U2OS [4]; 1000 nM) | cell viability (U2OS [4]; 10000 nM) | cell viability (Vero E6 [5]; 1 nM) | cell viability (Vero E6 [5]; 10 nM) | cell viability (Vero E6 [5]; 100 nM) | cell viability (Vero E6 [5]; 1000 nM) | cell viability (Vero E6 [5]; 10000 nM) | relative viability EC50 (Caco-2 [6]) | relative viability EC50 (Calu-3 [7]) | relative viability EC50 (HepG2 [8]) | relative viability EC50 (U2OS [9]) | relative viability EC50 (Vero E6 [10]) | drug sensitivity score (Caco-2 [11]) | drug sensitivity score (Calu-3 [12]) | drug sensitivity score (HepG2 [13]) | drug sensitivity score (U2OS [14]) | drug sensitivity score (Vero E6 [15]) |
| --- | --- | --- | --- | --- | --- | --- | --- | --- | --- | --- | --- | --- | --- | --- | --- | --- | --- | --- | --- | --- | --- | --- | --- | --- | --- | --- | --- | --- | --- | --- | --- | --- | --- | --- | --- |
| CC(=O)NCC(=O)N[C@H](CCC(=O)O)C(=O)O [N-acetylglycyl-D-glutamic-acid] | 91.3% | 104% | 93% | 103% | 101% | 94.5% | 106% | 98% | 93% | 95.7% | 110% | 95.7% | 98.6% | 102% | 100% | 102% | 102% | 97.7% | 102% | 99.4% | 109% | 99.9% | 103% | 97% | 99.6% | > 10 µM | > 10 µM | > 10 µM | > 10 µM | > 10 µM | 0 | 0 | 0 | 0 | 0 |
| c1ccc2sc(SN3CCOCC3)nc2c1 [N-oxydiethylenebenzothiazole-2-sulfenamide] | 86.7% | 92.6% | 92.5% | 92.5% | 93.8% | 104% | 101% | 97.4% | 83.3% | 110% | 101% | 97.1% | 98.9% | 115% | 111% | 96.9% | 105% | 94.1% | 99.1% | 102% | 97% | 94.5% | 99.6% | 104% | 112% | > 10 µM | > 10 µM | > 10 µM | > 10 µM | > 10 µM | 0 | 0 | 0 | 0 | 0 |
| CC1(C)Oc2ccc(C#N)cc2[C@@H](OC2=CC(=O)CC2)[C@@H]1O [PCO-400] | 113% | 90.5% | 99.6% | 92.8% | 103% | 96.6% | 95.9% | 110% | 102% | 103% | 101% | 97% | 109% | 105% | 86.9% | 107% | 95.8% | 98.8% | 90.6% | 99.8% | 102% | 97.3% | 97.7% | 102% | 94.6% | > 10 µM | > 10 µM | > 10 µM | > 10 µM | > 10 µM | 0 | 0 | 0 | 0 | 0 |
| CCCC(=O)C1CCN(c2ncnc3c2CN(C(=O)c2ccc(-c4ccccc4)cc2)CC3)CC1 [PK-THPP] | 105% | 99.8% | 100% | 100% | 75.3% | 106% | 101% | 98.9% | 105% | 101% | 98.9% | 99.1% | 91.2% | 94.9% | 93.6% | 106% | 98.9% | 103% | 97% | 95.6% | 102% | 105% | 99.7% | 104% | 98.3% | > 10 µM | > 10 µM | > 10 µM | > 10 µM | > 10 µM | 0.9 | 0 | 0 | 0 | 0 |
| O=C(OCCN1CCOCC1)C1(c2ccccc2)CCCCC1 [PRE-084] | 108% | 102% | 93.9% | 90.8% | 89.1% | 101% | 107% | 97.2% | 103% | 93% | 106% | 102% | 95.6% | 108% | 100% | 99.3% | 100% | 96.5% | 107% | 97.4% | 100% | 99.7% | 106% | 102% | 105% | > 10 µM | > 10 µM | > 10 µM | > 10 µM | > 10 µM | 0.4 | 0 | 0 | 0 | 0 |
| Cc1cc(OCCCS(C)(=O)=O)cc(C)c1-c1cccc(COc2ccc3c(c2)OC[C@H]3CC(=O)O)c1 [TAK-875] | 99.8% | 101% | 89.3% | 85.4% | 77.8% | 98.2% | 105% | 99.8% | 111% | 102% | 93.8% | 97.3% | 95.9% | 94.4% | 96.7% | 95.6% | 98.7% | 96.9% | 96.7% | 94.3% | 100% | 106% | 97.3% | 98.7% | 96.3% | > 10 µM | > 10 µM | > 10 µM | > 10 µM | > 10 µM | 2.5 | 0 | 0 | 0 | 0 |
| CN1C/C=C/CCOc2cccc(c2)-c2ccnc(n2)Nc2cccc(c2)C1 [TG-02] | 89.8% | 88.2% | 70.4% | 28.4% | 38.9% | 97.1% | 97.7% | 87.7% | 43.4% | 51.8% | 111% | 104% | 79.2% | 9.1% | 3.2% | 102% | 101% | 86% | 2.5% | 1.8% | 99.4% | 97.8% | 90% | 13.6% | 5.6% | 0.105 µM | 0.167 µM | 0.207 µM | 0.204 µM | 0.297 µM | 16.2 | 12.4 | 19.3 | 20 | 17.1 |
